Assay results from US10813920B2, “Drug for treating corneal endothelium by promoting cell proliferation or inhibiting cell damage” (THE DOSHISHA, priority 2013, dated 2020).

How the values were obtained:
[1] = test system: human corneal endothelial cells; test: Ki67 immunostaining of cultured human corneal endothelial cells; type: cell-based; details: 10 μM; after 3 days; vs control
Procedure: (§1) *Human corneal endothelial cells (HCEC, where the cells were obtained and culturing method thereof): HCEC was cultured as follows. In short, Descemet's membrane including corneal endothelial cells was peeled off from a corneal for research purchased from the Seattle Eye Bank, and the corneal endothelial cells were mechanically peeled off with a basal membrane. After collagenase (ROCHE catalog No: 10 103 586 001) was used to detach and collect the corneal endothelial cell from the basal membrane (typically 1 mg/mL collagenase A (Roche Applied Science) was used for treatment at 37° C. for 2 hours), the cells were subjected to primary culture. The medium used was Opti-MEM I Reduced-Serum Medium, Liquid (INVITROGEN catalog No.: 31985-070) to which 8% fetal bovine serum (FBS) (BIOWEST, catalog No.: S1820-500), […] of CaCl2.2H2O (SIGMA catalog No.: C7902-500G), 0.08% of chondroitin sulfate (SIGMA catalog No.: C9819-5G), 20 μg/ml of ascorbic acid (SIGMA catalog No.: A4544-25G), 50 μg/ml of gentamicin (INVITROGEN catalog No.: 15710-064) and 5 ng/ml of EGF (INVITROGEN catalog No.: PHG0311) were added and acclimated for a 3T3 feeder cell. […] Immunostaining was applied to the cells for observation with a fluorescence microscope. […]

[2] = test system: human corneal endothelial cells; test: UV-induced cell death, live cell count; type: cell-based; details: UV 100 J/m^2; 10 μM; 12 hours after UV irradiation; vs UV only
Procedure: In order to study the effect of a p38 MAP kinase signal inhibition on cell death, cultured human corneal endothelial cells were stimulated with ultraviolet rays (UV) of 100 J/m^2 to induce cell death to study the effect of SB203580 (used at 10 μM). The number of cells was counted for the study.

[3] = test system: corneal endothelial cells; test: Western blot of apoptosis molecules after UV irradiation; type: cell-based; details: UV 100 J/m^2, 10 μM
Procedure: as §1, with “cell. Specifically, after digestion at 37° C., HCEC obtained from individual corneas was resuspended in a culture medium and plated on a well of a 12-well plate coated with FNC Coating Mix®. The culture medium was prepared in accordance with a partially-modified disclosed protocol. In short, a basal cultural medium containing OptiMEM-I (Life Technologies), 8% FBS, 5 ng/mL of epithelial growth factor (EGF) (Sigma-Aldrich Co., St. Louis, Mo.), 20 μg/mL of ascorbic acid (Sigma-Aldrich), 200 mg/L calcium chloride (Sigma-Aldrich), 0.08% chondroitin sulfate (Wako Pure Chemical Industries, Osaka) and 50 μg/mL of gentamicin was prepared and an acclimated medium was collected after inactivated 3T3 fibroblasts were cultured. The 3T3 fibroblasts were inactivated as previously described.” for “cell.”

corneal endothelium = test: Monkey corneal endothelial partial disorder model, eye drops, Ki-67 immunostaining; type: in vivo, cynomolgus monkey; details: 3 mM eye drops, 50 μl, 4 times a day, right eye; vs base agent in left eye; 5 views per eye; p<0.01
Procedure: After a stainless steel bar with a diameter of 7 mm was cooled with liquid nitrogen, the bar was contacted with the corneal in both eyes of 2 cynomolgus monkeys (purchased from Shiga University of Medical Science). About 7 mm in diameter of the corneal endothelium fell off to make a partial disorder model.
50 μl of SB203580 (3 mM) eyedrops was then administered into the right eye 4 times a day. Similarly, eye drops of abase agent, which is phosphate buffer solution, were administered into the left eye as the control.
Expression of Ki-67 associated with cell proliferation was confirmed to be elevated after administration of SB203580 eye drops by immunostaining. The methodology of immunostaining was in accordance with the above-described Preparation Example 2. The antibodies were changed to antibodies to Ki-67 to conduct the experiment.
For a tissue staining inspection, cultured cells were immobilized with 4% formaldehyde for 10 minutes at room temperature (RT) and incubated for 60 minutes with 1% bovine serum albumin (BSA). The antibodies to Ki-67 were diluted 1:200 to conduct the inspection. For secondary antibodies, a 1:1000 dilution of Alexa Fluor® 488 labeling goat antimouse IgG (Life Technologies) was used. […] Slides were then observed under a fluorescence microscope (all-in-one fluorescence microscope, KEYENCE, Osaka, JAPAN). […]

[4] = cited from earlier work

C[S+]([O-])c1ccc(-c2nc(-c3ccncc3)c(-c3ccc(F)cc3)[nH]2)cc1 (centres unmarked) [SB203580, 4-(4-fluorophenyl)-2-(4-methylsulfinylphenyl)-5-(4-pyridyl)-1H-imidazole]
Expression of Ki67 (Ki67 positive cells) [1]: significantly more cells | number of live cells after UV irradiation (percentage to control) [2]: significantly increases | activation by cleavage of PARP due to UV irradiation [3]: suppresses | activation by cleavage of caspase 3 due to UV irradiation [3]: suppresses | phosphorylated histone H2AX induced by UV irradiation [3]: suppresses | percentage of Ki67 positive cells in corneal endothelium (corneal endothelium): significantly more Ki67 positive cells | solubility in methanol ([4]; methanol): soluble | solubility in water (pharmacopoeia class) ([4]; water): difficult to dissolve (100 mL or greater and less than 1000 mL)
